Values quoted from earlier work as cited in article PMC9240354, “Pharmacokinetics, Pharmacodynamics and Antiviral Efficacy of the MEK Inhibitor Zapnometinib in Animal Models and in Humans” (Frontiers in Pharmacology, 2022).

Experiments:
[1] = test system: MEK; set-up: method as in Yang et al., 2010; details: single application, LOX melanoma tumor xenograft model; ref Yang et al., 2010; cited from earlier work
[2] = test system: ERK phosphorylation; set-up: method as in Gilmartin et al., 2011; details: mouse tumor xenograft model; ref Gilmartin et al., 2011; cited from earlier work

Structure (SMILES)	MEK inhibition with decreasing plasma concentration [1]	inhibition of ERK phosphorylation in vivo [2]
CCCS(=O)(=O)Nc1ccc(F)c(C(=O)c2c[nH]c3ncc(-c4ccc(Cl)cc4)cc23)c1F [RG7204]	remained at a relatively constant value up to 8 h post dose	–
CC(=O)Nc1cccc(-n2c(=O)n(C3CC3)c(=O)c3c(Nc4ccc(I)cc4F)n(C)c(=O)c(C)c32)c1 [trametinib]	–	sustained inhibition of ERK phosphorylation
